As usually defined, the IC50 is the concentration that inhibits the measured activity by half. Read a low IC50 as inhibition by little substance.

One experiment addresses Gastrin/cholecystokinin type B receptor (Cavia porcellus). Kind of experiment: Binding activity towards cholecystokinin-B (CCK-B) receptor in guinea pig cortex.
As to `Cc1ccc2c(c1)N(CC(=O)NC(C)(C)C)C(=O)[C@H](NC(=O)Nc1cccc(C(=O)O)c1)C[C@@H]2C1CCCCC1` [3-{3-[(3R,5R)-1-(tert-Butylcarbamoyl-methyl)-5-cyclohexyl-8-methyl-2-oxo-2,3,4,5-tetrahydro-1H-benzo[b]azepin-3-yl]-ureido}-benzoic acid], the IC50 is 0.1 nM.

The target is the same in another experiment. Described as above. The source holds these as a separate data set.
As to `Cc1ccc2c(c1)N(CC(=O)NC(C)(C)C)C(=O)[C@H](NC(=O)Nc1cccc(-c3nnn[nH]3)c1)C[C@@H]2Cc1ccccc1` [2-((3R,5S)-5-Benzyl-8-methyl-2-oxo-3-{3-[3-(1H-tetrazol-5-yl)-phenyl]-ureido}-2,3,4,5-tetrahydro-benzo[b]azepin-1-yl)-N-tert-butyl-acetamide], the IC50 came to 1.7 nM.

Turning to `Cc1ccc2c(c1)N(CC(=O)NC(C)(C)C)C(=O)[C@H](NC(=O)Nc1cccc(C(=O)NS(=O)(=O)c3ccccc3)c1)C[C@@H]2c1ccccc1` [2-{(3R,5R)-3-[3-(3-Benzenesulfonylaminocarbonyl-phenyl)-ureido]-8-methyl-2-oxo-5-phenyl-2,3,4,5-tetrahydro-benzo[b]azepin-1-yl}-N-tert-butyl-acetamide], the IC50 was determined as 4.8 nM.

For `COC(=O)c1cccc(NC(=O)N[C@@H]2C[C@H](C3CCCCC3)c3ccc(C)cc3N(CC(=O)NC(C)(C)C)C2=O)c1` [3-{3-[(3R,5R)-1-(tert-Butylcarbamoyl-methyl)-5-cyclohexyl-8-methyl-2-oxo-2,3,4,5-tetrahydro-1H-benzo[b]azepin-3-yl]-ureido}-benzoic acid methyl ester], the concentration for half-maximal inhibition (IC50) was found to be 0.6 nM.

For the compound `COC(=O)c1cccc(NC(=O)N[C@@H]2C[C@H](c3ccccc3)c3ccc(C)cc3N(CC(=O)NC(C)(C)C)C2=O)c1` [3-{3-[(3R,5R)-1-(tert-Butylcarbamoyl-methyl)-8-methyl-2-oxo-5-phenyl-2,3,4,5-tetrahydro-1H-benzo[b]azepin-3-yl]-ureido}-benzoic acid methyl ester], the IC50 stood at 1.4 nM.

Turning to `Cc1ccc2c(c1)N(CC(=O)NC(C)(C)C)C(=O)[C@H](NC(=O)Nc1cccc(C(=O)O)c1)C[C@@H]2c1ccccc1` [3-{3-[(3R,5R)-1-(tert-Butylcarbamoyl-methyl)-8-methyl-2-oxo-5-phenyl-2,3,4,5-tetrahydro-1H-benzo[b]azepin-3-yl]-ureido}-benzoic acid], the IC50 was 2.7 nM.

Consider `Cc1ccc2c(c1)N(CC(=O)NC(C)(C)C)C(=O)[C@H](NC(=O)Nc1cccc(-c3nnn[nH]3)c1)C[C@@H]2C1CCCCC1` [N-tert-Butyl-2-((3R,5R)-5-cyclohexyl-8-methyl-2-oxo-3-{3-[3-(1H-tetrazol-5-yl)-phenyl]-ureido}-2,3,4,5-tetrahydro-benzo[b]azepin-1-yl)-acetamide], for which the IC50 stood at 0.22 nM.

`Cc1ccc2c(c1)N(CC(=O)NC(C)(C)C)C(=O)[C@H](NC(=O)Nc1cccc(-c3nnn[nH]3)c1)C[C@@H]2C(C)C` [N-tert-Butyl-2-((3R,5R)-5-isopropyl-8-methyl-2-oxo-3-{3-[3-(1H-tetrazol-5-yl)-phenyl]-ureido}-2,3,4,5-tetrahydro-benzo[b]azepin-1-yl)-acetamide] registered an IC50 of 0.98 nM.

Turning to `Cc1ccc2c(c1)N(CC(=O)NC(C)(C)C)C(=O)[C@H](NC(=O)Nc1cccc(-c3nnn[nH]3)c1)C[C@@H]2c1ccccc1` [N-tert-Butyl-2-((3R,5R)-8-methyl-2-oxo-5-phenyl-3-{3-[3-(1H-tetrazol-5-yl)-phenyl]-ureido}-2,3,4,5-tetrahydro-benzo[b]azepin-1-yl)-acetamide], the IC50 was found to be 0.81 nM.

Compound `Cc1ccc2c(c1)N(CC(=O)NC(C)(C)C)C(=O)[C@H](NC(=O)Nc1cccc(C(=O)NS(=O)(=O)c3ccccc3C)c1)C[C@@H]2c1ccccc1` [N-tert-Butyl-2-((3R,5R)-8-methyl-2-oxo-5-phenyl-3-{3-[3-(toluene-2-sulfonylaminocarbonyl)-phenyl]-ureido}-2,3,4,5-tetrahydro-benzo[b]azepin-1-yl)-acetamide] returned an IC50 of 7.9 nM.

In the case of `CCS(=O)(=O)NC(=O)c1cccc(NC(=O)N[C@@H]2C[C@H](c3ccccc3)c3ccc(C)cc3N(CC(=O)NC(C)(C)C)C2=O)c1` [N-tert-Butyl-2-{(3R,5R)-3-[3-(3-ethanesulfonylaminocarbonyl-phenyl)-ureido]-8-methyl-2-oxo-5-phenyl-2,3,4,5-tetrahydro-benzo[b]azepin-1-yl}-acetamide], the IC50 was determined as 1 nM.

`Cc1ccc2c(c1)N(CC(=O)NC(C)(C)C)C(=O)[C@H](NC(=O)Nc1cccc(C(=O)NS(C)(=O)=O)c1)C[C@@H]2c1ccccc1` [N-tert-Butyl-2-{(3R,5R)-3-[3-(3-methanesulfonylaminocarbonyl-phenyl)-ureido]-8-methyl-2-oxo-5-phenyl-2,3,4,5-tetrahydro-benzo[b]azepin-1-yl}-acetamide] had an IC50 of 0.88 nM.

With `Cc1ccc2c(c1)N(CC(=O)NC(C)(C)C)C(=O)[C@H](NC(=O)Nc1cccc(C(=O)NS(C)(=O)=O)c1)C[C@@H]2C1CCCCC1` [N-tert-Butyl-2-{(3R,5R)-5-cyclohexyl-3-[3-(3-methanesulfonylaminocarbonyl-phenyl)-ureido]-8-methyl-2-oxo-2,3,4,5-tetrahydro-benzo[b]azepin-1-yl}-acetamide], the half-inhibitory concentration (IC50) worked out at 0.26 nM.

The compound `Cc1ccc2c(c1)N(CC(=O)NC(C)(C)C)C(=O)[C@H](NC(=O)Nc1cccc(C(=O)NS(=O)(=O)Cc3ccccc3)c1)C[C@@H]2c1ccccc1` [N-tert-Butyl-2-{(3R,5R)-8-methyl-2-oxo-5-phenyl-3-[3-(3-phenylmethanesulfonylaminocarbonyl-phenyl)-ureido]-2,3,4,5-tetrahydro-benzo[b]azepin-1-yl}-acetamide] showed an IC50 of 4.2 nM.

On to `Cc1ccc2c(c1)N(CC(=O)NC(C)(C)C)C(=O)[C@H](NC(=O)Nc1cccc(C(=O)NS(=O)(=O)C(F)(F)F)c1)C[C@@H]2c1ccccc1` [N-tert-Butyl-2-{(3R,5R)-8-methyl-2-oxo-5-phenyl-3-[3-(3-trifluoromethanesulfonylaminocarbonyl-phenyl)-ureido]-2,3,4,5-tetrahydro-benzo[b]azepin-1-yl}-acetamide], for which the IC50 is 5.1 nM.

Values taken from BindingDB's records for doi:10.1016/0960-894X(95)00327-P (1995).
